Measured values published in the supplement of paper PMC10307832.

compound: CCOC(=O)CCNc1cc(N2CCc3ccccc3CC2)nc(-c2ccccn2)n1 [GSK-J4] + Cc1nc(Nc2ncc(C(=O)Nc3c(C)cccc3Cl)s2)cc(N2CCN(CCO)CC2)n1 [Dasatinib] (partner 0.075 µM); experiment: relative viability (nuclei count vs DMSO), 5 days (fraction); higher = more cells survive; conditions: first compound 5 µM
Outline: (§1)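 Lung cancer cell lines, seeded in 1536-well plates, were treated the following day by pin tool with a single drug or with five library-drug doses (not always all listed) in √10 steps on top of a fixed anchor-drug dose. Cells were fixed and nuclei stained in one step after 5 days, and nuclei were counted. Relative viability is the nuclei count for treated wells divided by that for vehicle wells, reported as medians of duplicate plates.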

| Cell Line | relative viability |
| --- | --- |
| NCI-H1975 | 0.253 |
| NCI-H441 | 0.735 |
| NCI-H1650 | 0.372 |
| NCI-H2087 | 0.725 |
| NCI-H1793 | 0.239 |
| RERF-LC-KJ | 0.695 |
| EMC-BAC-2 | 0.191 |
| LCLC-97TM1 | 0.951 |
| NCI-H1651 | 0.367 |
| NCI-H2170 | 0.643 |

same assay, conditions: first compound 15.81 µM

| Cell Line | relative viability |
| --- | --- |
| CAL-12T | 0.405 |
| HCC-15 | 0.476 |
| HOP-62 | 0.567 |
| NCI-H460 | 0.37 |
| LU99A | 0.457 |
| NCI-H2085 | 0.223 |
| A-427 | 0.655 |
| NCI-H520 | 0.125 |
| NCI-H838 | 0.266 |
| NCI-H596 | 0.497 |
| NCI-H3122 | 0.864 |
| BEN | 0.304 |
| NCI-H1395 | 0.355 |
| 201T | 0.391 |
| NCI-H1993 | 0.52 |
| NCI-H1355 | 0.538 |

| Cell Line | relative viability |
| --- | --- |
| NCI-H2405 | 0.212 |
| NCI-H1437 | 0.307 |
| NCI-H661 | 0.641 |
| COR-L 105 | 0.315 |
| H3255 | 0.369 |
| NCI-H1975 | 0.267 |
| NCI-H441 | 0.516 |
| NCI-H1650 | 0.283 |
| NCI-H1915 | 0.316 |
| NCI-H2087 | 0.694 |
| NCI-H1793 | 0.358 |
| RERF-LC-KJ | 0.708 |
| EMC-BAC-2 | 0.339 |
| LCLC-97TM1 | 0.825 |
| NCI-H1651 | 0.443 |
| NCI-H2170 | 0.475 |

same assay, conditions: first compound 50 µM

| Cell Line | relative viability |
| --- | --- |
| CAL-12T | 0.335 |
| HCC-15 | 0.393 |
| HOP-62 | 0.525 |
| NCI-H460 | 0.363 |
| LU99A | 0.374 |
| NCI-H2085 | 0.377 |
| A-427 | 0.274 |
| NCI-H520 | 0.184 |
| NCI-H838 | 0.275 |
| NCI-H596 | 0.599 |
| NCI-H3122 | 0.789 |
| BEN | 0.284 |
| NCI-H1395 | 0.375 |
| 201T | 0.348 |
| NCI-H1993 | 0.43 |
| NCI-H1355 | 0.675 |
| NCI-H2405 | 0.186 |

| Cell Line | relative viability |
| --- | --- |
| NCI-H1437 | 0.126 |
| NCI-H661 | 0.649 |
| COR-L 105 | 0.326 |
| H3255 | 0.386 |
| NCI-H2347 | 0.261 |
| NCI-H1975 | 0.284 |
| NCI-H441 | 0.358 |
| NCI-H1650 | 0.314 |
| NCI-H1915 | 0.352 |
| NCI-H2087 | 0.645 |
| NCI-H1793 | 0.414 |
| RERF-LC-KJ | 0.371 |
| EMC-BAC-2 | 0.258 |
| LCLC-97TM1 | 0.555 |
| NCI-H1651 | 0.477 |
| NCI-H2170 | 0.536 |

compound: CCOC(=O)CCNc1cc(N2CCc3ccccc3CC2)nc(-c2ccccn2)n1 [GSK-J4] + O=C(CCCCCCC(=O)Nc1ccccc1)NO [Vorinostat] (partner 1 µM); experiment: as above; conditions: first compound 0.5 µM
Outline: as §1

| Cell Line | relative viability |
| --- | --- |
| CAL-12T | 0.723 |
| HCC-15 | 0.903 |
| HOP-62 | 0.48 |
| NCI-H460 | 0.663 |
| LU99A | 0.47 |
